# Assay results published in ChEMBL document CHEMBL5046262, “Fragment-Based Discovery of MRTX1719, a Synthetic Lethal Inhibitor of the PRMT5•MTA Complex for the Treatment of MTAP-Deleted Cancers” (J Med Chem, 2022).
# pIC50: −log10 of the molar value. Where “and” joins values, the source holds several entries; their conditions need not be identical. Equal values may be shown once.
# Legend:
# [1] = Apparent permeability across apical to basolateral side in dog MDCKII-MDR1 cells at 2 uM incubated for 2.5 hrs by LC-MS/MS analysis; format: ADME, cell-based, Canis lupus familiaris, MDCK-MDR1; details: MDCK-MDR1
# [2] = Intrinsic clearance in mouse hepatocytes; format: ADME, cell-based, Hepatocyte; details: read-out: CLH
# [3] = molecular target: T1, Protein arginine N-methyltransferase 5 (Homo sapiens, UniProt O14744); assay: Inhibition of PRMT5 methyltransferase activity in MTAP knockout human HCT-116 cells assessed as inhibition of PRMT5- mediated SDMA modification level incubated for 96 hrs by Western blot analysis; format: cell-based
# HCT-116 [4] = assay: Antiproliferative activity against MTAP knockout human HCT-116 cells assessed as reduction in cell viability incubated for 5 days followed by replacement with fresh medium containing compound and measured after 5 days by CTG assay; format: functional, cell-based
# HCT-116 [5] = assay: Antiproliferative activity against human HCT-116 cells expressing wild type MTAP assessed as reduction in cell viability incubated for 5 days followed by replacement with fresh medium containing compound and measured after 5 days by CTG assay; format: functional, cell-based
# [6] = Intrinsic clearance in human hepatocytes; format: ADME, cell-based, Hepatocyte; details: read-out: CLH
# [7] = Efflux ratio of apparent permeability across basolateral to apical side over apical to basolateral side in dog MDCKII-MDR1 cells at 2 uM incubated for 2.5 hrs by LC-MS/MS analysis; format: ADME, cell-based, Canis lupus familiaris, MDCK-MDR1; details: for efflux ratio at 2.5 h, 2 µM: MDCK-MDR1
# [8] = molecular target: T1, Protein arginine N-methyltransferase 5; assay: Inhibition of PRMT5 methyltransferase activity in human HCT-116 cells expressing wild type MTAP assessed as inhibition of PRMT5- mediated SDMA modification level incubated for 96 hrs by Western blot analysis; format: cell-based
# [9] = molecular target: T1, Protein arginine N-methyltransferase 5
# Homo sapiens [10] = organism: Homo sapiens; assay: Selectivity ratio of IC50 for inhibition of human PRMT5 co-complexed with MEP50 in absence of MTA to IC50 for inhibition of MTA-bound human PRMT5 co-complexed with MEP50
# [11] = molecular target: T1, Protein arginine N-methyltransferase 5; remark: listed apart in the source
# [12] = Volume of distribution at steady state in CD-1 mouse at 3 mg/kg, iv measured upto 24 hrs by LC-MS/MS analysis; format: ADME, organism-based; details: in vivo, read-out: Vdss
# [13] = Total clearance in CD-1 mouse at 3 mg/kg, iv measured upto 24 hrs by LC-MS/MS analysis; format: ADME, organism-based; details: in vivo
# [14] = Half life in CD-1 mouse at 3 mg/kg, iv measured upto 24 hrs by LC-MS/MS analysis; format: ADME, organism-based; details: in vivo
# [15] = Oral bioavailability in CD-1 mouse at 30 mg/kg administered via gavage measured upto 24 hrs by LC-MS/MS analysis; format: ADME, organism-based; details: in vivo
# Homo sapiens [16] = organism: Homo sapiens; assay: Selectivity ratio of IC50 for inhibition of PRMT5 methyltransferase activity in human HCT-116 cells expressing wild type MTAP to IC50 for nhibition of PRMT5 methyltransferase activity in MTAP knockout human HCT-116 cells; format: cell-based
# T1 sequence (O14744 whole entry): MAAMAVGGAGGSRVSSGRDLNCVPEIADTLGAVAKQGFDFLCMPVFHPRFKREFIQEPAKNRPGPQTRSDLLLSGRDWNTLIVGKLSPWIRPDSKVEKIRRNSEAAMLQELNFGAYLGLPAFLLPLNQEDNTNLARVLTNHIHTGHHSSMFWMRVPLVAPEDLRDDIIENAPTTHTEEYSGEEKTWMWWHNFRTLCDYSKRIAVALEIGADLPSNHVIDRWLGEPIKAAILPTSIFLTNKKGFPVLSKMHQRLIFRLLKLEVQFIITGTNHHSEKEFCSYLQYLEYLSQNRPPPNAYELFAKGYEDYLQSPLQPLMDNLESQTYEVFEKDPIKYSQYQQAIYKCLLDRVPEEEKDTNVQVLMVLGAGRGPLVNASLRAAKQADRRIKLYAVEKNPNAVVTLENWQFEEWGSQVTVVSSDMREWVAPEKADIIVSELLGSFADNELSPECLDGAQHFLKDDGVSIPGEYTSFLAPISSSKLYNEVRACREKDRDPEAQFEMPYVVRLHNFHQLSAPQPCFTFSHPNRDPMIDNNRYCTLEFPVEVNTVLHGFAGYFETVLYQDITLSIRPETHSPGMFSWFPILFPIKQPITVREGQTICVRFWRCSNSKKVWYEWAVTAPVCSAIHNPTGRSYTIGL
pIC50 [9],Ratio IC50 (Homo sapiens [10]),pIC50 [11],Structure (SMILES),"Papp A→B at 2.5 h, 2 µM [1]",CLint scaled [2],pIC50 [3],pIC50 (HCT-116 [4]),pIC50 (HCT-116 [5]),CLint scaled [6],"efflux ratio at 2.5 h, 2 µM [7]",pIC50 [8],Vd [12],clearance [13],half-life [14],bioavailability [15],Ratio IC50 (Homo sapiens [16]),"Ratio ([7]; mdck-mdr1, 2.5 h, 2 µM, 2.5 h)"
,,,Cn1ncc(-c2ccc3c(=O)[nH]nc(CN)c3c2)c1-c1ccc2ccccc2c1C#N,0.4 ×10⁻⁶ cm/s,340 mL/min/kg,7.96,7.31,5.70,< 18 mL/min/kg,99,5.92,,,,,,
4.16,12,5.24,Cc1ccc(-c2ccc3c(=O)[nH]nc(CN)c3c2)cn1,4.7 ×10⁻⁶ cm/s,,,,,,3.5,,,,,,,
4.94,17,6.17,CC(C)n1cc(-c2ccc3c(=O)[nH]nc(CN)c3c2)cn1,1.31 ×10⁻⁶ cm/s,,,,,,20.1,,,,,,,
,,,Cc1cc(OC2CC2)c(C#N)c(-c2c(-c3ccc4c(=O)[nH]nc(CN)c4c3)cnn2C)c1,0.4 ×10⁻⁶ cm/s,175 mL/min/kg,8.05,7.11,5.89,21 mL/min/kg,62,,,,,,,
,,,Cn1ncc(-c2ccc3c(=O)[nH]nc(CN)c3c2)c1-c1cc2ccccc2cc1C#N,0.5 ×10⁻⁶ cm/s,212 mL/min/kg,6.93,6.58,5.29,< 18 mL/min/kg,31,,,,,,,
4.72,21,6.04,NCc1n[nH]c(=O)c2ccc(-c3cccnc3)cc12,2.8 ×10⁻⁶ cm/s,,,,,,0.7,,,,,,,
,,,Cn1ncc(-c2ccc3c(=O)[nH]nc(CN)c3c2)c1-c1sc2ccccc2c1C#N,0.6 ×10⁻⁶ cm/s,280 mL/min/kg,8.30,7.24,5.24,41 mL/min/kg,58,< 6.00,,,,,,
5.12,24,6.49,CCCn1cc(-c2ccc3c(=O)[nH]nc(CN)c3c2)cn1,3.2 ×10⁻⁶ cm/s,,,,,,2.7,,,,,,,
,,,Cn1ncc(-c2ccc3c(=O)[nH]nc(CN)c3c2)c1-c1c(Cl)ccc(OC2CC2)c1C#N,0.3 ×10⁻⁶ cm/s,332 mL/min/kg,7.96,7.04,5.78,< 18 mL/min/kg,131,< 6.00,,,,,,
,,,NCc1n[nH]c(=O)c2ccc(-c3cncs3)cc12,14.6 ×10⁻⁶ cm/s,,,,,,0.6,,,,,,,
,,,Cn1ncc(-c2ccc3c(=O)[nH]nc(CN)c3c2)c1-c1c(F)ccc(OC2CC2)c1C#N,0.2 ×10⁻⁶ cm/s,143 mL/min/kg,,7.37 and 7.77 and 6.95,5.66 and 5.44 and 5.38,18 mL/min/kg,143,5.98 and 5.35,,,,,,123 and 150
< 4.00,,4.52,NCc1n[nH]c(=O)c2ccc(-c3cccnn3)cc12,1.1 ×10⁻⁶ cm/s,,,,,,0.9,,,,,,,
,,,CC(=O)N1CCC(Nc2cc(C(=O)NC[C@H](O)CN3CCc4ccccc4C3)ncn2)CC1 [PEMRAMETOSTAT],,,,6.72,6.63,,,,,,,,,
4.94,16,6.15,NCc1n[nH]c(=O)c2ccc(-c3cnsc3)cc12,11.1 ×10⁻⁶ cm/s,,,,,,0.8,,,,,,,
,3,,NCc1n[nH]c(=O)c2ccc(-c3ccccc3)cc12,,,,,,,,,,,,,,
< 4.00,,4.02,NCc1n[nH]c(=O)c2ccc(-c3ccccn3)cc12,9.3 ×10⁻⁶ cm/s,,,,,,1.2,,,,,,,
4.95,16,,NCc1n[nH]c(=O)c2ccc(-c3cnn(CCO)c3)cc12,0.9 ×10⁻⁶ cm/s,,,,,,0.9,,,,,,,
4.97,21,6.29,CCn1cc(-c2ccc3c(=O)[nH]nc(CN)c3c2)cn1,2 ×10⁻⁶ cm/s,,,,,,6.2,,,,,,,
5.89,26,7.30,Cc1c(-c2ccc3c(=O)[nH]nc(CN)c3c2)cnn1C,4.9 ×10⁻⁶ cm/s,,,,,,0.6,,,,,,,

Structure (SMILES),pIC50 [9],Ratio IC50 (Homo sapiens [10]),pIC50 [11],"Papp A→B at 2.5 h, 2 µM [1]",CLint scaled [2],pIC50 [3],pIC50 (HCT-116 [4]),pIC50 (HCT-116 [5]),CLint scaled [6],"efflux ratio at 2.5 h, 2 µM [7]",pIC50 [8],Vd [12],clearance [13],half-life [14],bioavailability [15],Ratio IC50 (Homo sapiens [16]),"Ratio ([7]; mdck-mdr1, 2.5 h, 2 µM, 2.5 h)"
Cn1ncc(-c2ccc3c(=O)[nH]nc(CN)c3c2)c1-c1cccc(Cl)c1C#N,,,5.70,0.7 ×10⁻⁶ cm/s,232 mL/min/kg,7.21,6.26,< 5.00,< 18 mL/min/kg,35,5.05,6.6 L/kg,121 mL/min/kg,1.3 h,12%,,
Cn1ncc(-c2ccc3c(=O)[nH]nc(CN)c3c2)c1-c1ccccc1C#N,,,5.40,1.6 ×10⁻⁶ cm/s,148 mL/min/kg,6.08,5.28,< 5.00,< 18 mL/min/kg,7,5.50,,,,,4,
Cn1ncc(-c2ccc3c(=O)[nH]nc(CN)c3c2)c1-c1ccccc1,,,5.52,1.5 ×10⁻⁶ cm/s,123 mL/min/kg,5.61,5.44,5.39,23 mL/min/kg,20,5.01,,,,,,
CCc1cccc(-c2c(-c3ccc4c(=O)[nH]nc(CN)c4c3)cnn2C)c1C#N,,,5.70,0.3 ×10⁻⁶ cm/s,523 mL/min/kg,7.10,6.76,< 5.00,18 mL/min/kg,35,5.49,,,,,,
Cc1cccc(-c2c(-c3ccc4c(=O)[nH]nc(CN)c4c3)cnn2C)c1C#N,,,5.52,0.6 ×10⁻⁶ cm/s,296 mL/min/kg,7.00,6.44,< 5.00,29 mL/min/kg,36,5.05,,,,,,
COc1cccc(-c2c(-c3ccc4c(=O)[nH]nc(CN)c4c3)cnn2C)c1C#N,,,6.00,0.6 ×10⁻⁶ cm/s,137 mL/min/kg,7.21,6.07,< 5.00,< 18 mL/min/kg,20,< 5.00,,,,,,
Cn1ncc(-c2ccc3c(=O)[nH]nc(CN)c3c2)c1-c1c(F)cccc1C#N,,,5.40,0.3 ×10⁻⁶ cm/s,171 mL/min/kg,6.49,6.12,5.13,18 mL/min/kg,42,< 5.00,,,,,,
